Like-named read-outs stand apart in the source and are kept apart here.
How the values were obtained:
Assay in all cases: selectivity profiling in a panel of 340 wild-type kinases (Reaction Biology Europe)
Format in all cases: binding
[1] = target: T1, 340 wild-type kinases (Homo sapiens, UniProt P10721)
T1 construct: purchased Reaction Biology Europe

[2] = target: T2, 340 wild-type kinases (Homo sapiens, UniProt P31751)
T2 construct: purchased Reaction Biology Europe

[3] = target: T3, 340 wild-type kinases (Homo sapiens, UniProt P42679)
T3 construct: purchased Reaction Biology Europe
T3 sequence (P42679 1-507): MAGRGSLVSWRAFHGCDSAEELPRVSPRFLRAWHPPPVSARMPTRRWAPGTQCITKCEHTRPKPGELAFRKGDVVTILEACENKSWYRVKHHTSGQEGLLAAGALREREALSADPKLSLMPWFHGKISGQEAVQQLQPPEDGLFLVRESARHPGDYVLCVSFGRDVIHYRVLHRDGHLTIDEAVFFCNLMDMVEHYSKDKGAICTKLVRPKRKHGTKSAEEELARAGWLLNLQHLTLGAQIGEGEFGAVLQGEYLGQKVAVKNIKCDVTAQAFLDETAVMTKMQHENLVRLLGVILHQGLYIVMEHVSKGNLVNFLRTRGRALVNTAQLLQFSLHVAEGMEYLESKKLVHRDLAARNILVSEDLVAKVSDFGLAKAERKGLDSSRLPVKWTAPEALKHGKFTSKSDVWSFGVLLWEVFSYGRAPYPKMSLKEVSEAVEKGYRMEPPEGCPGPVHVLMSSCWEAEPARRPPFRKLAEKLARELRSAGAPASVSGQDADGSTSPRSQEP

[4] = target: T4, 340 wild-type kinases (Homo sapiens, UniProt P54762)
T4 construct: purchased Reaction Biology Europe
T4 sequence (P54762 18-984): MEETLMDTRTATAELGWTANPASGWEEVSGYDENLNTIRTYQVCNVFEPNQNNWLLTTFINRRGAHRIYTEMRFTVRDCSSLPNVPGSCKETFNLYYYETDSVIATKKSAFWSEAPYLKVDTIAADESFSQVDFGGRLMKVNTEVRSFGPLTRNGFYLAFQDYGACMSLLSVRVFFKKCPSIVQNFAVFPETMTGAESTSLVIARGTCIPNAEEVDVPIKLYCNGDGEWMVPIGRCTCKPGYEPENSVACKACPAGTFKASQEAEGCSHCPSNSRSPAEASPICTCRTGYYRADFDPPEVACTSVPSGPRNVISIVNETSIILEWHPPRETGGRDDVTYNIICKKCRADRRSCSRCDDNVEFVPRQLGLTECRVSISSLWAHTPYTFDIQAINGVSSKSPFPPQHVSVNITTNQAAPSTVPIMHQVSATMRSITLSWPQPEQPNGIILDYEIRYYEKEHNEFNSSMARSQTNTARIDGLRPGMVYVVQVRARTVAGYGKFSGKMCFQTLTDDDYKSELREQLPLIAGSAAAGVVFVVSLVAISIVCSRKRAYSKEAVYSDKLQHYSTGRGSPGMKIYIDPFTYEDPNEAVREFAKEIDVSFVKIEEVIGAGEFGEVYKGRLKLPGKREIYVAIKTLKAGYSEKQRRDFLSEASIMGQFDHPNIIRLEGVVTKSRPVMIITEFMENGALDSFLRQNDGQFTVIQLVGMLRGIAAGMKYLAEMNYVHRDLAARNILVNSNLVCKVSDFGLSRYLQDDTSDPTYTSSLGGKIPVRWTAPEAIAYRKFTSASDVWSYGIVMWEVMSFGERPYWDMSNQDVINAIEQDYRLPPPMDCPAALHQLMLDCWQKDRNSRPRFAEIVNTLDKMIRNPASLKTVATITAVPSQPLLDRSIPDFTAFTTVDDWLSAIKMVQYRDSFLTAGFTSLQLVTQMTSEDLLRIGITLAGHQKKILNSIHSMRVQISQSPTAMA

[5] = target: T5, 340 wild-type kinases (Homo sapiens, UniProt Q15139)
T5 construct: purchased Reaction Biology Europe
T5 sequence (Q15139 1-912): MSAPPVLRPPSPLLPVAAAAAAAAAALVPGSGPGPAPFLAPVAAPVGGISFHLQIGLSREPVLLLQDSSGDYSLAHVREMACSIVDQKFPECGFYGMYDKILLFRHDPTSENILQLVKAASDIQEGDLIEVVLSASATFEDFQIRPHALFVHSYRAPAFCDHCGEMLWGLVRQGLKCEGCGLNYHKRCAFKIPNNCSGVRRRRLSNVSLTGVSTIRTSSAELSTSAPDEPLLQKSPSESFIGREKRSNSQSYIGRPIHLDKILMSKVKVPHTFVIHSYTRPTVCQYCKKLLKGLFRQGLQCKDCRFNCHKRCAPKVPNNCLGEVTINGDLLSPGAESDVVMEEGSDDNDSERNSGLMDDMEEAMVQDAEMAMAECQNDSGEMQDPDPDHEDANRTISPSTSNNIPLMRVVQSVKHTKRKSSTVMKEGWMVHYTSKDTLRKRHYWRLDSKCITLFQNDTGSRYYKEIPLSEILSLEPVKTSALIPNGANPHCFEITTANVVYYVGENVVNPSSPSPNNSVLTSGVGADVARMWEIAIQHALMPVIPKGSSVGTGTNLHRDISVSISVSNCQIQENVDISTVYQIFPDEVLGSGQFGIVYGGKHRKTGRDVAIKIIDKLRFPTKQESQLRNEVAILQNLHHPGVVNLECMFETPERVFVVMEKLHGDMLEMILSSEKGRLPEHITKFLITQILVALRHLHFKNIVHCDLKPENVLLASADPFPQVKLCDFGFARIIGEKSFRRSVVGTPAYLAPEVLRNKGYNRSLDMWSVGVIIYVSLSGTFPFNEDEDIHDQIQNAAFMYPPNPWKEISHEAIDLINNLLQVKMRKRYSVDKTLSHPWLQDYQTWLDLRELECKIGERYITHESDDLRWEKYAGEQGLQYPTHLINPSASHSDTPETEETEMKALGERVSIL

[6] = target: T6, 340 wild-type kinases (Homo sapiens, UniProt Q9BUB5)
T6 construct: purchased Reaction Biology Europe
T6 sequence (Q9BUB5 whole entry): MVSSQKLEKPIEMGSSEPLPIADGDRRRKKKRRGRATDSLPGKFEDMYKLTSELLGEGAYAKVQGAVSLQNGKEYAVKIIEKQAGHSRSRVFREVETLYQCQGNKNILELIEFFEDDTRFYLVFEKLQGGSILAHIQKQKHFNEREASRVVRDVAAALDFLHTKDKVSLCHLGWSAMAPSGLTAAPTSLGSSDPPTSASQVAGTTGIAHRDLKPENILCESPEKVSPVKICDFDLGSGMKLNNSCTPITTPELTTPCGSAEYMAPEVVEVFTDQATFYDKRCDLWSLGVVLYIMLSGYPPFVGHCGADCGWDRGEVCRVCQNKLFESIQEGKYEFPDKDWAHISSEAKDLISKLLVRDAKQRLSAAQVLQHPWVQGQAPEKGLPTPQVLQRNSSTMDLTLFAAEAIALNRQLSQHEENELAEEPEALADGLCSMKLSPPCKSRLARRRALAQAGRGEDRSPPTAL

T1 sequence (P10721 26-976): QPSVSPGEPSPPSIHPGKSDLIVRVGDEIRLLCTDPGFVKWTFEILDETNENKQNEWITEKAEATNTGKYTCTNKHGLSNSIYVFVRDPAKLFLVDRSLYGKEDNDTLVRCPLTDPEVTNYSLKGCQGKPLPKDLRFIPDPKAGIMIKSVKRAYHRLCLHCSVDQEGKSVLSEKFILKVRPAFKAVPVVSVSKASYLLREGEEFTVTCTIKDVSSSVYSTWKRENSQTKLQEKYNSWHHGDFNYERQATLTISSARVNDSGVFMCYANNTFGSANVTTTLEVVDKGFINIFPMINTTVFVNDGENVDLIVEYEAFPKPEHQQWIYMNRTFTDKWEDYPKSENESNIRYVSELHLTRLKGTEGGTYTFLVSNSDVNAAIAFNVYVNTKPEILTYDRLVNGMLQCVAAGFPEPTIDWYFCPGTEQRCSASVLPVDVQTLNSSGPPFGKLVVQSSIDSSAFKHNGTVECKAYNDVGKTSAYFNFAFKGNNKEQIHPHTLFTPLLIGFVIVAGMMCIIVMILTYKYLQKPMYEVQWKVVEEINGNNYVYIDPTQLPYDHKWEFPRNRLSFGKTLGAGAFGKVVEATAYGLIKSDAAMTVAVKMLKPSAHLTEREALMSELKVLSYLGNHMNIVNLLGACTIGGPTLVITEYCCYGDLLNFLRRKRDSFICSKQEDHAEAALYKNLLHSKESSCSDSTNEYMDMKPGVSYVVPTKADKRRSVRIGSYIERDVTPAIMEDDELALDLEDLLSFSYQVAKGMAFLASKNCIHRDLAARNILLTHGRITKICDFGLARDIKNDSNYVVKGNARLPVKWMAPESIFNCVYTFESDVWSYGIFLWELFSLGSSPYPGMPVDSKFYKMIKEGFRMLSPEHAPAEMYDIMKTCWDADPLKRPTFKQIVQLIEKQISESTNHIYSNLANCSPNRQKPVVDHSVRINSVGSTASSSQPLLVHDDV
T2 sequence (P31751 whole entry): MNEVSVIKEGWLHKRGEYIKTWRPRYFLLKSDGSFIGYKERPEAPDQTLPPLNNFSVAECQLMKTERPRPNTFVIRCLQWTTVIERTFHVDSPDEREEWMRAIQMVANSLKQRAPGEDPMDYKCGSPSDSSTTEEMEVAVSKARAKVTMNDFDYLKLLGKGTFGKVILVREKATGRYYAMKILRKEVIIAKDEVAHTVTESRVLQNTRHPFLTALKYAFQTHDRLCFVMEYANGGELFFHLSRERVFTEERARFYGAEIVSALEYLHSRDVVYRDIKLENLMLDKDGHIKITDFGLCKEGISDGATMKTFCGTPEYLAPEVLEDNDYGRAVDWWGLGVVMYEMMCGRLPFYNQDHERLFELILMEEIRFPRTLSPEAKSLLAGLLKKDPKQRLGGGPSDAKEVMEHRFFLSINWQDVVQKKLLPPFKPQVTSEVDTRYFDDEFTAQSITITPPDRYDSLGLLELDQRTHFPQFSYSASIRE

## CNC(=O)c1ccc2c(c1)C(=O)c1ccc(Nc3ccc(F)c(NC(=O)C4CC4)c3)cc1CC2 [Compound 2015]
[1]; 0.2 µM 2015, read-out: KIT residual activity
  remaining activity at 0.2 µM: 114%
[1]; 1 µM 2015, read-out: KIT residual activity
  remaining activity at 1 µM: 109%
[1]; KIT, 0.2 µM, read-out: residual activity
  remaining activity at 0.2 µM: 114%
[1]; KIT, 1 µM, read-out: residual activity
  remaining activity at 1 µM: 109%
[2]; 0.2 µM 2015, read-out: AKT2 residual activity
  remaining activity at 0.2 µM: 64.5%
[2]; 1 µM 2015, read-out: AKT2 residual activity
  remaining activity at 1 µM: 93%
[2]; AKT2, 0.2 µM, read-out: residual activity
  remaining activity at 0.2 µM: 64.5%
[2]; AKT2, 1 µM, read-out: residual activity
  remaining activity at 1 µM: 93%
[3]; 0.2 µM 2015, read-out: MATK residual activity
  remaining activity at 0.2 µM: 112%
[3]; 1 µM 2015, read-out: MATK residual activity
  remaining activity at 1 µM: 100%
[3]; MATK, 0.2 µM, read-out: residual activity
  remaining activity at 0.2 µM: 112%
[3]; MATK, 1 µM, read-out: residual activity
  remaining activity at 1 µM: 100%
[4]; 0.2 µM 2015, read-out: EPHB1 residual activity
  remaining activity at 0.2 µM: 118%
[4]; 1 µM 2015, read-out: EPHB1 residual activity
  remaining activity at 1 µM: 103%
[4]; EPHB1, 0.2 µM, read-out: residual activity
  remaining activity at 0.2 µM: 118%
[4]; EPHB1, 1 µM, read-out: residual activity
  remaining activity at 1 µM: 103%
[5]; 0.2 µM 2015, read-out: PKCmu residual activity
  remaining activity at 0.2 µM: 98.1%
[5]; 1 µM 2015, read-out: PKCmu residual activity
  remaining activity at 1 µM: 95.1%
[5]; PKCmu, 0.2 µM, read-out: residual activity
  remaining activity at 0.2 µM: 98.1%
[5]; PKCmu, 1 µM, read-out: residual activity
  remaining activity at 1 µM: 95.1%
[6]; 0.2 µM 2015, read-out: MKNK1 residual activity
  remaining activity at 0.2 µM: 98.2%
[6]; 1 µM 2015, read-out: MKNK1 residual activity
  remaining activity at 1 µM: 91.6%
[6]; MKNK1, 0.2 µM, read-out: residual activity
  remaining activity at 0.2 µM: 98.2%
[6]; MKNK1, 1 µM, read-out: residual activity
  remaining activity at 1 µM: 91.6%

Source: article PMC11864979, “First-in-class ultralong-target-residence-time p38α inhibitors as a mitosis-targeted therapy for colorectal cancer” (Nature Cancer, 2025)
